pKi: −log10 of the molar value. Activity calls are given as the source filed them. No rule for the calls is given here.

Drawing on PubChem BioAssay AID2036 (NMMLSC, 2009), this text covers EC50 and Ki for 16 compounds.

For one test, the target named is Ras-related protein Rab7, wildtype (dog). In words: extra analogs blocking nucleotide binding to Rab7 – biochemical, additional analogs, wildtype, multiplex bead flow cytometry, SAR follow-up (AID 2036). Particulars: Rab7 GTP binding. For orientation: Flow cytometry measures light scatter and fluorescence of single cells or particles in a stream.
As to `O=Nc1c(-c2c(O)[nH]c3ccc(Br)cc23)[nH]c2ccccc12`, the EC50 result was “inactive”. Regarding `O=C1N=c2ccccc2=C1c1[nH]c(=S)[nH]c1O`, the EC50 result is “inactive”. Consider `O=C1C(c2c(O)[nH]c3ccccc23)=Nc2ccccc21`, for which the EC50 entry was “inactive”. On to `O=Nc1c(-c2c(O)[nH]c3c(Cl)cccc23)[nH]c2ccccc12`, for which the EC50 entry was “inactive”. Take `O=C1N=c2ccccc2=C1c1[nH]c(=O)[nH]c1O`: the EC50 entry was “inactive”. For `O=C1C(c2c(O)[nH]c3ccc(Br)cc23)=Nc2ccccc21`, the EC50 entry is “inactive”.

Turning to `O=Nc1c(-c2c(O)[nH]c3c(F)cccc23)[nH]c2ccccc12`, the EC50 result was “inactive”. As for `O=Nc1c(-c2c(O)[nH]c3ccccc23)[nH]c2ccccc12`, the EC50 result was “inactive”. Consider `O=C1C(c2c(O)[nH]c3c(F)cccc23)=Nc2ccccc21`, for which the EC50 entry was “inactive”.

For the compound `O=Nc1c(-c2c(O)[nH]c3c(Br)cccc23)[nH]c2ccccc12`, the EC50 entry was “inactive”. On the same count and under the same terms, as for `O=C1C(c2c(O)[nH]c3c(Br)cccc23)=Nc2ccccc21`, the entry is “inactive”; as for `O=C1C(c2c(O)[nH]c3c(Cl)cccc23)=Nc2ccccc21`, “inactive”.

The test is the same for the next values; noted with them: Rab7 GTP binding, measured here: Ki from EC50.
`O=C1N=c2ccccc2=C1c1[nH]c(=S)[nH]c1O` had a pKi of 6.06. Consider `O=C1C(c2c(O)[nH]c3c(F)cccc23)=Nc2ccccc21`, for which the pKi is 5.81. Still for that read-out and setting: then `CC(C)Cc1ccc([C@H](C)C(=O)O)cc1`, with 6.51. Still for that read-out and setting: then `COc1ccc(S(=O)(=O)n2c(N)c(C#N)c(-c3cncc(Br)c3)c2C(=O)c2ccccc2)cc1`, with 6.27. The compound `COc1cc(-c2c(C#N)c(N)n(S(=O)(=O)c3c(C(C)C)cc(C(C)C)cc3C(C)C)c2C(=O)c2ccccc2)cc(OC)c1OC` had a pKi of 5.66. Regarding `CSc1ccc(/C=C2/C(C)=C(CC(=O)O)c3cc(F)ccc32)cc1`, the pKi was 5.57.

In general, pKi refers to the negative decadic logarithm of the Ki, by convention in mol/L. Read a high pKi as a low Ki.
